Source: ChEMBL document CHEMBL1909046, “DrugMatrix in vitro pharmacology data”

Key:
Cytochrome P450 2C19 = Cytochrome P450 2C19 (Homo sapiens, UniProt P33261); conditions: bti-tn-5b1-4; note: in other assays of this panel Not Active means under 50% inhibition at 10 µM
[1] = DRUGMATRIX: Calcium Channel Type L, Benzothiazepine radioligand binding (ligand: [3H] Diltiazem); assay type: cell membranes, Rattus norvegicus, Wistar, Brain, Membrane; conditions: Not Active = under 50% inhibition at 10 µM
[2] = DRUGMATRIX: beta-Lactamase enzyme inhibition (substrate: Nitrocefin); design: species or system Bacillus cereus; conditions: Not Active = under 50% inhibition at 10 µM
Substance-P receptor = Substance-P receptor (Homo sapiens, UniProt P25103); assay type: cell membranes, CHO, Membrane; conditions: cho; note: in other assays of this panel Not Active means under 50% inhibition at 10 µM
Sequence of Substance-P receptor (P25103 whole entry): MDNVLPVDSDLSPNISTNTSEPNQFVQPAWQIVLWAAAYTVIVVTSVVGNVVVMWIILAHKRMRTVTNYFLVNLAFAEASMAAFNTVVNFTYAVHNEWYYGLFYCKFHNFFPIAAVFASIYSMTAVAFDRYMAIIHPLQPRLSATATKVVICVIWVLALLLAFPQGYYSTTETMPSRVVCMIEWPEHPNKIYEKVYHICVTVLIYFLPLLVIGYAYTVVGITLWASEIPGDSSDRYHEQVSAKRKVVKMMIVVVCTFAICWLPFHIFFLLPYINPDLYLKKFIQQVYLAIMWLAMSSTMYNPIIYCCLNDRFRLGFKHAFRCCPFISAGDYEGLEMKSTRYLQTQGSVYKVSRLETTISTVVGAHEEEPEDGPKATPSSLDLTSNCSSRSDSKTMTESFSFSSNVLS

[3] = target: T1, Nitric oxide synthase, inducible (Mus musculus, UniProt P29477); design: species or system Escherichia coli;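 note: inhibition of iNOS enzyme activity measured with L-arginine as substrate; in other assays of this panel Not Active means under 50% inhibition at 10 µM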
T1 sequence (P29477 whole entry): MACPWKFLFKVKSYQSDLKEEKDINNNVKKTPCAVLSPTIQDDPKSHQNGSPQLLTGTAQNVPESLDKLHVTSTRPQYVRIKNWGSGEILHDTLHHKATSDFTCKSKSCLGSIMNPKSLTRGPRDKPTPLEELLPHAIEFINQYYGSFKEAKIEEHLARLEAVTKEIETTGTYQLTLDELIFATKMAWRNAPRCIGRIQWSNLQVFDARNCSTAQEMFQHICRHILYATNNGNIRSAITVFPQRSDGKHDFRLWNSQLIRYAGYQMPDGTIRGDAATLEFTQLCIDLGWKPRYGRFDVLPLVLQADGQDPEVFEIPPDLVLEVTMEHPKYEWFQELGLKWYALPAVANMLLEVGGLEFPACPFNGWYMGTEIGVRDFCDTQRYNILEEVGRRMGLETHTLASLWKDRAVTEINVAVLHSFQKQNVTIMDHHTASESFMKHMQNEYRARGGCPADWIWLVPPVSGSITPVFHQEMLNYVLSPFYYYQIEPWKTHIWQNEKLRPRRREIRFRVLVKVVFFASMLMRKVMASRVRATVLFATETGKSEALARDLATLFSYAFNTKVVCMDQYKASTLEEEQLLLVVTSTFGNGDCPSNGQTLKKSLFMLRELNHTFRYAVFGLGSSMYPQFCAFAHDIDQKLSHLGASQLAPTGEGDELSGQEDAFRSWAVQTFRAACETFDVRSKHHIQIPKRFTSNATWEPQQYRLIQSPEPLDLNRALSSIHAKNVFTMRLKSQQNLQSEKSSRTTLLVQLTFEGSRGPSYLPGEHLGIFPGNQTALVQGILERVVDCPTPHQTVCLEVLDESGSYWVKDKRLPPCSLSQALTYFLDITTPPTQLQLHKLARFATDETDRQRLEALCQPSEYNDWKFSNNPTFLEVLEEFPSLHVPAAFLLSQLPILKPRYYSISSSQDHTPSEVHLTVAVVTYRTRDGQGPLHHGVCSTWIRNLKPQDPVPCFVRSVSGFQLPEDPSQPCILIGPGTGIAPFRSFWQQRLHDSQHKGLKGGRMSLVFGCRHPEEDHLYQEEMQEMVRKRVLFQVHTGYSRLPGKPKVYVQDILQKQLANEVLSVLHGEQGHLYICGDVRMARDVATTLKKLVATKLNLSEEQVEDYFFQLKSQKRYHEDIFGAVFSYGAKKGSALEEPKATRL

[4] = target: Beta-3 adrenergic receptor (Homo sapiens, UniProt P13945); experiment: DRUGMATRIX: Adrenergic beta3 radioligand binding (ligand: [125I] Cyanopindolol); assay type: cell membranes, HEK293, Membrane; conditions: hek293; Not Active = under 50% inhibition at 10 µM
Sequence of Beta-3 adrenergic receptor (P13945 whole entry): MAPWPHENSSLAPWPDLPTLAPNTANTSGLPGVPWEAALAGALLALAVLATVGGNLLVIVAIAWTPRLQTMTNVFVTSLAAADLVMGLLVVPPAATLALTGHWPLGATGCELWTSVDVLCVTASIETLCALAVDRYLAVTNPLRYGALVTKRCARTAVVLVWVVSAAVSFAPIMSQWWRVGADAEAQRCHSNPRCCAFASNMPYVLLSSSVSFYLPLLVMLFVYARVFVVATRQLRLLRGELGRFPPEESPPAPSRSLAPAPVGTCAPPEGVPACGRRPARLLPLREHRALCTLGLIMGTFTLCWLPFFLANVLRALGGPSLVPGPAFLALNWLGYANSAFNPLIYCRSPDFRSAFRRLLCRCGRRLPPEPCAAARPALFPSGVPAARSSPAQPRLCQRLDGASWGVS

[5] = target: Sodium-dependent noradrenaline transporter (Homo sapiens, UniProt P23975); experiment: DRUGMATRIX: Norepinephrine Transporter radioligand binding (ligand: [125I] RTI-55); assay type: cell membranes, MDCK, Membrane; conditions: mdck; Not Active = under 50% inhibition at 10 µM
Sequence of Sodium-dependent noradrenaline transporter (P23975 whole entry): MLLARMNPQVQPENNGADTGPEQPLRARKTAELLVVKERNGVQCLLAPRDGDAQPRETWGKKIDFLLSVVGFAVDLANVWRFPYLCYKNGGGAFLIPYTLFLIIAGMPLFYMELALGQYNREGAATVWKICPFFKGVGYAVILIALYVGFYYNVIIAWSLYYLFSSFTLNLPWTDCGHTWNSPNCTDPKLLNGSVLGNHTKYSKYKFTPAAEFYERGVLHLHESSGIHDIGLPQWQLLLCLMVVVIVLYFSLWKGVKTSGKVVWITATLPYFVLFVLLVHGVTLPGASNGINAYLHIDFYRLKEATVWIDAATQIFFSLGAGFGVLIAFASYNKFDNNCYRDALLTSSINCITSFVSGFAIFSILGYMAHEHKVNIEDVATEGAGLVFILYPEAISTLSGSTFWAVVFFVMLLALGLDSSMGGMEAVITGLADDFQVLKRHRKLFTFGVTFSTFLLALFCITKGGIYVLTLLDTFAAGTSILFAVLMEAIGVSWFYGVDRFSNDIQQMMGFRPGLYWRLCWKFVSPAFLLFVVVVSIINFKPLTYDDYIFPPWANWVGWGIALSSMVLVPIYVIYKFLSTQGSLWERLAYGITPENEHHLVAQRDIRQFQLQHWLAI

Sequence of Cytochrome P450 2C19 (P33261 whole entry): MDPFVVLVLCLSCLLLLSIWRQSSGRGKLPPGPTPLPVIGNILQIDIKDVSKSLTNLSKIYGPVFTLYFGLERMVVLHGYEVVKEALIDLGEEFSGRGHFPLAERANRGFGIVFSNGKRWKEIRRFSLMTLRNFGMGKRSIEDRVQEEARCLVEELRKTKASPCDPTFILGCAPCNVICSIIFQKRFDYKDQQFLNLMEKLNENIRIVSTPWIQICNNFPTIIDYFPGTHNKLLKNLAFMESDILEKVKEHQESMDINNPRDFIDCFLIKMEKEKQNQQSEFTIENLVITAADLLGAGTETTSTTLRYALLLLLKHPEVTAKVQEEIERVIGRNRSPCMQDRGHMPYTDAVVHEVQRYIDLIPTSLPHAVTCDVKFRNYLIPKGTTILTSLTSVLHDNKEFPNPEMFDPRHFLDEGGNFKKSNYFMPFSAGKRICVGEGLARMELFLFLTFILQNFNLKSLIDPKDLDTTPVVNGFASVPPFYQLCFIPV

C[n+]1ccccc1/C=N/O.[Cl-] [PRALIDOXIME CHLORIDE]
Not Active: IC50 (Cytochrome P450 2C19) | Ki (Cytochrome P450 2C19) | IC50 [1] | Ki [1] | IC50 [2] | Ki [2] | IC50 (Substance-P receptor) | IC50 [3] | IC50 [4] | IC50 [5]

COc1cc2nc(N3CCN(C(=O)c4ccco4)CC3)nc(N)c2cc1OC [PRAZOSIN]
Not Active: IC50 (Cytochrome P450 2C19) | Ki (Cytochrome P450 2C19) | IC50 [1] | Ki [1] | IC50 [2] | Ki [2] | IC50 (Substance-P receptor) | IC50 [3] | IC50 [4] | IC50 [5]

C[C@]12C=CC(=O)C=C1CC[C@@H]1[C@@H]2[C@@H](O)C[C@@]2(C)[C@H]1CC[C@]2(O)C(=O)CO [PREDNISOLONE]
Not Active: IC50 (Cytochrome P450 2C19) | Ki (Cytochrome P450 2C19) | IC50 [1] | Ki [1] | IC50 [2] | Ki [2] | IC50 (Substance-P receptor) | IC50 [3] | IC50 [4] | IC50 [5]

CC(=O)[C@H]1[C@H](C#N)C[C@H]2[C@@H]3CC=C4C[C@@H](O)CC[C@]4(C)[C@H]3CC[C@@]21C [PREGNENOLONE CARBONITRILE]
Not Active: IC50 (Cytochrome P450 2C19) | Ki (Cytochrome P450 2C19) | IC50 [1] | Ki [1] | IC50 [2] | Ki [2] | IC50 (Substance-P receptor) | IC50 [3] | IC50 [4] | IC50 [5]

CCCN(CCC)S(=O)(=O)c1ccc(C(=O)O)cc1 [PROBENECID]
Not Active: IC50 (Cytochrome P450 2C19) | Ki (Cytochrome P450 2C19) | IC50 [1] | Ki [1] | IC50 [2] | Ki [2] | IC50 (Substance-P receptor) | IC50 [3] | IC50 [4] | IC50 [5]

CCCOc1ccc(C(=O)OCCN(CC)CC)cc1N [PROPARACAINE]
Not Active: IC50 (Cytochrome P450 2C19) | Ki (Cytochrome P450 2C19) | IC50 [1] | Ki [1] | IC50 [2] | Ki [2] | IC50 (Substance-P receptor) | IC50 [3] | IC50 [4] | IC50 [5]

C[C@@H]1O[C@@H](O[C@@H]2C=C3CC[C@@H]4[C@H](CC[C@]5(C)[C@@H](c6ccc(=O)oc6)CC[C@]45O)[C@@]3(C)CC2)[C@H](O)[C@H](O)[C@H]1O [PROSCILLARIDIN]
Not Active: IC50 (Cytochrome P450 2C19) | Ki (Cytochrome P450 2C19) | IC50 [1] | Ki [1] | IC50 [2] | Ki [2] | IC50 (Substance-P receptor) | IC50 [3] | IC50 [4] | IC50 [5]

Oc1cccc(O)c1O [PYROGALLOL]
Not Active: IC50 (Cytochrome P450 2C19) | Ki (Cytochrome P450 2C19) | IC50 [1] | Ki [1] | IC50 [2] | Ki [2] | IC50 (Substance-P receptor) | IC50 [3] | IC50 [4] | IC50 [5]

AURANOFIN
Not Active: IC50 (Cytochrome P450 2C19) | Ki (Cytochrome P450 2C19) | IC50 [1] | Ki [1] | IC50 [2] | Ki [2] | IC50 (Substance-P receptor) | Ki (Substance-P receptor) | IC50 [3] | Ki [3] | IC50 [4] | Ki [4] | IC50 [5] | Ki [5]

GADOPENTETATE DIMEGLUMINE
Not Active: IC50 (Cytochrome P450 2C19) | Ki (Cytochrome P450 2C19) | IC50 [1] | Ki [1] | IC50 [2] | Ki [2] | IC50 (Substance-P receptor) | Ki (Substance-P receptor) | IC50 [3] | Ki [3] | IC50 [4] | Ki [4] | IC50 [5] | Ki [5]

GENTAMICIN
Not Active: IC50 (Cytochrome P450 2C19) | Ki (Cytochrome P450 2C19) | IC50 [1] | Ki [1] | IC50 [2] | Ki [2] | IC50 (Substance-P receptor) | Ki (Substance-P receptor) | IC50 [3] | Ki [3] | IC50 [4] | Ki [4] | IC50 [5] | Ki [5]

GRAMICIDIN
Not Active: IC50 (Cytochrome P450 2C19) | Ki (Cytochrome P450 2C19) | IC50 [1] | Ki [1] | IC50 [2] | Ki [2] | IC50 (Substance-P receptor) | Ki (Substance-P receptor) | IC50 [3] | Ki [3] | IC50 [4] | Ki [4] | IC50 [5] | Ki [5]

NYSTATIN
Not Active: IC50 (Cytochrome P450 2C19) | Ki (Cytochrome P450 2C19) | IC50 [1] | Ki [1] | IC50 [2] | Ki [2] | IC50 (Substance-P receptor) | Ki (Substance-P receptor) | IC50 [3] | Ki [3] | IC50 [4] | Ki [4] | IC50 [5] | Ki [5]
